Laboratory results as given in patent publication US20260191968A1, “PROTAC DEGRADERS OF MLLT1 AND/OR MLLT3” (DARK BLUE THERAPEUTICS LTD, priority 2024, published 2026).
pIC50: −log10 of the molar value.

Experiments:
MLLT1 = target: T1, MLLT1 (Homo sapiens, UniProt Q03111); assay: MLLT1 degradation assay in MV4-11 cells (JESS chemiluminescent detection), three concentrations, 24 h; type: cell-based; details: with respect to DMSO control
T1 construct: host or cells: MV4-11
T1 sequence (Q03111 1-559): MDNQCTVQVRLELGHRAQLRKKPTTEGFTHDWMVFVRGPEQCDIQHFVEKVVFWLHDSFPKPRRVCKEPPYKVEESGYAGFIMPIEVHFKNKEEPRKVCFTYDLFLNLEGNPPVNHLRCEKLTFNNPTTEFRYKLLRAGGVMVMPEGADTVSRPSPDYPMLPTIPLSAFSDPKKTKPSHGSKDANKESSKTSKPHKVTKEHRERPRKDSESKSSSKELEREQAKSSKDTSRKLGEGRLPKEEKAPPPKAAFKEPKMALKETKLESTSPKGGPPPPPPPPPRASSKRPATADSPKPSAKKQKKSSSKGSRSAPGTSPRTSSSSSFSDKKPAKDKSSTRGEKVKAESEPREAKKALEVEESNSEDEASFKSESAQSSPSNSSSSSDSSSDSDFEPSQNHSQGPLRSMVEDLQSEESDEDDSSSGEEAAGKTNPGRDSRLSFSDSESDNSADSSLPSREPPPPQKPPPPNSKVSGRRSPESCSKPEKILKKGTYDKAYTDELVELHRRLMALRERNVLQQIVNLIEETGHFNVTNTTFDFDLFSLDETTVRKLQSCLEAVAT
Outline: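 MV4-11 cells treated 24 h at 37° C, 5% CO2 with 1000, 100 and 10 nM compound (0.1% DMSO final). MLLT1 quantified by automated capillary chemiluminescent immunodetection; band peak area expressed as % degradation relative to DMSO control.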

MV4-11 cells = assay: MV4-11 cellular proliferative assay, Assay Format A (CellTiter-Glo, 120 hours); type: cell-based; details: Homo sapiens
Experimental: An MV4-11 proliferation assay was used to test the ability of compounds to reduce cell viability. MV4-11 cells (ATCC #CRL9591) were grown in IMDM medium (11510596, Gibco) supplemented with 10% fetal bovine serum (F7524, Gibco) and 1% Penicillin/Streptomycin (15140-122, Gibco) at 37° C. with 5% CO2. Cells were seeded in 384-well Elplasia plates (4447, Corning) at a density of 50 cells/well and treated with vehicle (DMSO) or compounds (10 serial semi-log dilutions, 30 μM as top concentration).
After 120 hours of treatment, cells were incubated for 10 min at RT with the CellTiter-Glo (CTG) reagent (G7571, Promega). Measurement of the luminescence signal was performed on a microplate reader (Ensight, PerkinElmer). CTG reagent measures the amount of ATP, which is directly proportional to the number of cells, to determine the number of viable cells in culture.
The data were analysed as follows:
where x is the measured raw signal value of a well, (cr) is the median of the measured signal values for the Central Reference (DMSO) wells on a plate, (sr) is the median of the measured signal values for the Scale Reference (reference compound) wells on a plate.
where the experimental set-up assumes the Hill parameters in certain ranges: S0~Central Reference (CR) from normalization (=Bottom), Sinf~Scale Reference (SR) from normalization (=Top), nHill~1, AC50~within the measured concentration range.

In the case of `CN1CCC[C@@H]1c1cc2cnc(NC(=O)CCCCCCNc3cccc4c3C(=O)N(C3CCC(=O)NC3=O)C4=O)cc2[nH]1` (stereo partly drawn) [Example 29, 7-{[2-(2,6-dioxopiperidin-3-yl)-1,3-dioxoisoindol-4-yl]amino}-N-{2-[(2R)-1-methylpyrrolidin-2-yl]-1H-pyrrolo[3,2-c]pyridin-6-yl}heptanamide], the “MLLT1% Degradation @ 0.01 μM” value (MLLT1) was “D (Category D: D < 25% degradation)”, the “MLLT1% Degradation @ 0.1 μM” value (MLLT1) was “C (Category C: 25% ≤ C < 50% degradation)” and the “MLLT1% Degradation @ 1 μM” value (MLLT1) was “A (Category A: A ≥ 75% degradation)”. For the same compound, the pIC50 (MV4-11 cells) was ≥ 7.00.
With `CN1CCC[C@@H]1c1[nH]c2cc(NC(=O)CCCCCCNc3cccc4c3C(=O)N(C3CCC(=O)NC3=O)C4=O)ncc2c1Cl` (stereo partly drawn) [Example 33, N-{3-chloro-2-[(2R)-1-methylpyrrolidin-2-yl]-1H-pyrrolo[3,2-c]pyridin-6-yl}-7-{[2-(2,6-dioxopiperidin-3-yl)-1,3-dioxoisoindol-4-yl]amino}heptanamide] the “MLLT1% Degradation @ 0.01 μM” value (MLLT1) was “B (Category B: 50% ≤ B < 75% degradation)”, the “MLLT1% Degradation @ 0.1 μM” value (MLLT1) was “A (Category A: A ≥ 75% degradation)” and the “MLLT1% Degradation @ 1 μM” value (MLLT1) was “A (Category A: A ≥ 75% degradation)”. For the same compound, the pIC50 (MV4-11 cells) was ≥ 7.00.
In the case of `CN1CCC[C@@H]1c1cc2cnc(NC(=O)c3ccc(-c4cnn(CCCC5CCN(c6cccc7c6C(=O)N(C6CCC(=O)NC6=O)C7=O)CC5)c4)cc3)cc2[nH]1` (stereo partly drawn) [Example 34, 4-[1-(3-{1-[2-(2,6-dioxopiperidin-3-yl)-1,3-dioxoisoindol-4-yl]piperidin-4-yl}propyl)pyrazol-4-yl]-N-{2-[(2R)-1-methylpyrrolidin-2-yl]-1H-pyrrolo[3,2-c]pyridin-6-yl}benzamide], the “MLLT1% Degradation @ 0.1 μM” value (MLLT1) was “A (Category A: A ≥ 75% degradation)”, the “MLLT1% Degradation @ 1 μM” value (MLLT1) was “A (Category A: A ≥ 75% degradation)” and the pIC50 (MV4-11 cells) was ≥ 7.00.
In the case of `CN1CCC[C@@H]1c1cc2cnc(NC(=O)c3ccc(-c4cnn(CCCC5CCN(c6cccc7c6CN(C6CCC(=O)NC6=O)C7=O)CC5)c4)cc3)cc2[nH]1` (stereo partly drawn) [Example 35, 4-[1-(3-{1-[2-(2,6-dioxopiperidin-3-yl)-1-oxo-3H-isoindol-4-yl]piperidin-4-yl}propyl)pyrazol-4-yl]-N-{2-[(2R)-1-methylpyrrolidin-2-yl]-1H-pyrrolo[3,2-c]pyridin-6-yl}benzamide], the “MLLT1% Degradation @ 0.01 μM” value (MLLT1) was “A (Category A: A ≥ 75% degradation)”, the “MLLT1% Degradation @ 0.1 μM” value (MLLT1) was “A (Category A: A ≥ 75% degradation)” and the “MLLT1% Degradation @ 1 μM” value (MLLT1) was “A (Category A: A ≥ 75% degradation)”. For the same compound, the pIC50 (MV4-11 cells) was ≥ 7.00.
In the case of `CN1CCC[C@@H]1c1cc2cnc(NC(=O)c3ccc(CCCNc4cccc5c4C(=O)N(C4CCC(=O)NC4=O)C5=O)cc3)cc2[nH]1` (stereo partly drawn) [Example 36, 4-(3-{[2-(2,6-dioxopiperidin-3-yl)-1,3-dioxoisoindol-4-yl]amino}propyl)-N-{2-[(2R)-1-methylpyrrolidin-2-yl]-1H-pyrrolo[3,2-c]pyridin-6-yl}benzamide], the “MLLT1% Degradation @ 0.01 μM” value (MLLT1) was “A (Category A: A ≥ 75% degradation)”, the “MLLT1% Degradation @ 0.1 μM” value (MLLT1) was “A (Category A: A ≥ 75% degradation)” and the “MLLT1% Degradation @ 1 μM” value (MLLT1) was “A (Category A: A ≥ 75% degradation)”. The pIC50 (MV4-11 cells) was ≥ 7.00.
In the case of `CN1CCC[C@H]1c1cc2cnc(NC(=O)c3ccc(CCCNc4cccc5c4C(=O)N(C4CCC(=O)NC4=O)C5=O)cc3)cc2[nH]1` (stereo partly drawn) [Example 37, 4-(3-{[2-(2,6-dioxopiperidin-3-yl)-1,3-dioxoisoindol-4-yl]amino}propyl)-N-{2-[(2S)-1-methylpyrrolidin-2-yl]-1H-pyrrolo[3,2-c]pyridin-6-yl}benzamide], the “MLLT1% Degradation @ 0.01 μM” value (MLLT1) was “B (Category B: 50% ≤ B < 75% degradation)”, the “MLLT1% Degradation @ 0.1 μM” value (MLLT1) was “A (Category A: A ≥ 75% degradation)” and the “MLLT1% Degradation @ 1 μM” value (MLLT1) was “A (Category A: A ≥ 75% degradation)”. For the same compound, the pIC50 (MV4-11 cells) was ≥ 7.00.
In the case of `CN1CCC[C@@H]1c1cc2cnc(NC(=O)COCCCCNc3cccc4c3C(=O)N(C3CCC(=O)NC3=O)C4=O)cc2[nH]1` (stereo partly drawn) [Example 40, 2-(4-((2-(2,6-dioxopiperidin-3-yl)-1,3-dioxoisoindolin-4-yl)amino)butoxy)-N-(2-((R)-1-methylpyrrolidin-2-yl)-1H-pyrrolo[3,2-c]pyridin-6-yl)acetamide], the “MLLT1% Degradation @ 0.1 μM” value (MLLT1) was “C (Category C: 25% ≤ C < 50% degradation)”, the “MLLT1% Degradation @ 1 μM” value (MLLT1) was “B (Category B: 50% ≤ B < 75% degradation)” and the pIC50 (MV4-11 cells) was ≥ 7.00.
In the case of `CN1CCC[C@@H]1c1cc2cnc(NC(=O)CCCC3CCN(c4cccc5c4C(=O)N(C4CCC(=O)NC4=O)C5=O)CC3)cc2[nH]1` (stereo partly drawn) [Example 41, 4-(1-(2-(2,6-dioxopiperidin-3-yl)-1,3-dioxoisoindolin-4-yl)piperidin-4-yl)-N-(2-((R)-1-methylpyrrolidin-2-yl)-1H-pyrrolo[3,2-c]pyridin-6-yl)butanamide], the “MLLT1% Degradation @ 0.01 μM” value (MLLT1) was “B (Category B: 50% ≤ B < 75% degradation)”, the “MLLT1% Degradation @ 0.1 μM” value (MLLT1) was “B (Category B: 50% ≤ B < 75% degradation)” and the “MLLT1% Degradation @ 1 μM” value (MLLT1) was “A (Category A: A ≥ 75% degradation)”. For the same compound, the pIC50 (MV4-11 cells) was ≥ 7.00.
`CN1CCC[C@@H]1c1cc2cnc(NC(=O)CCCCC3CCN(c4cccc5c4C(=O)N(C4CCC(=O)NC4=O)C5=O)CC3)cc2[nH]1` (stereo partly drawn) [Example 42, 5-(1-(2-(2,6-Dioxopiperidin-3-yl)-1,3-dioxoisoindolin-4-yl)piperidin-4-yl)-N-(2-((R)-1-methylpyrrolidin-2-yl)-1H-pyrrolo[3,2-c]pyridin-6-yl)pentanamide] was tested, and the “MLLT1% Degradation @ 0.1 μM” value (MLLT1) was “B (Category B: 50% ≤ B < 75% degradation)”, the “MLLT1% Degradation @ 1 μM” value (MLLT1) was “B (Category B: 50% ≤ B < 75% degradation)” and the pIC50 (MV4-11 cells) was ≥ 7.00.
In the case of `CN1CCC[C@@H]1c1cc2cnc(NC(=O)CCCCCC3CCN(c4cccc5c4C(=O)N(C4CCC(=O)NC4=O)C5=O)CC3)cc2[nH]1` (stereo partly drawn) [Example 43, 6-(1-(2-(2,6-dioxopiperidin-3-yl)-1,3-dioxoisoindolin-4-yl)piperidin-4-yl)-N-(2-((R)-1-methylpyrrolidin-2-yl)-1H-pyrrolo[3,2-c]pyridin-6-yl)hexanamide], the “MLLT1% Degradation @ 0.1 μM” value (MLLT1) was “A (Category A: A ≥ 75% degradation)”, the “MLLT1% Degradation @ 1 μM” value (MLLT1) was “B (Category B: 50% ≤ B < 75% degradation)” and the pIC50 (MV4-11 cells) was ≥ 7.00.
For `CN1CCC[C@@H]1c1cc2cnc(NC(=O)c3cccc(CCCNc4cccc5c4C(=O)N(C4CCC(=O)NC4=O)C5=O)c3)cc2[nH]1` (stereo partly drawn) [Example 45, 3-(3-((2-(2,6-dioxopiperidin-3-yl)-1,3-dioxoisoindolin-4-yl)amino)propyl)-N-(2-((R)-1-methylpyrrolidin-2-yl)-1H-pyrrolo[3,2-c]pyridin-6-yl)benzamide], the “MLLT1% Degradation @ 0.01 μM” value (MLLT1) was “A (Category A: A ≥ 75% degradation)”, the “MLLT1% Degradation @ 0.1 μM” value (MLLT1) was “A (Category A: A ≥ 75% degradation)” and the “MLLT1% Degradation @ 1 μM” value (MLLT1) was “A (Category A: A ≥ 75% degradation)”. The pIC50 (MV4-11 cells) was ≥ 7.00.
In the case of `CN1CCC[C@@H]1c1cc2cnc(NC(=O)c3cccc(-c4cnn(CCCC5CCN(c6cccc7c6C(=O)N(C6CCC(=O)NC6=O)C7=O)CC5)c4)c3)cc2[nH]1` (stereo partly drawn) [Example 47, 3-(1-(3-(1-(2-(2,6-dioxopiperidin-3-yl)-1,3-dioxoisoindolin-4-yl)piperidin-4-yl)propyl)-1H-pyrazol-4-yl)-N-(2-((R)-1-methylpyrrolidin-2-yl)-1H-pyrrolo[3,2-c]pyridin-6-yl)benzamide], the “MLLT1% Degradation @ 0.01 μM” value (MLLT1) was “C (Category C: 25% ≤ C < 50% degradation)”, the “MLLT1% Degradation @ 0.1 μM” value (MLLT1) was “B (Category B: 50% ≤ B < 75% degradation)” and the “MLLT1% Degradation @ 1 μM” value (MLLT1) was “A (Category A: A ≥ 75% degradation)”. The pIC50 (MV4-11 cells) was ≥ 7.00.
With `CN1CCC[C@@H]1c1cc2cnc(NC(=O)c3ccc(OCC#Cc4cccc5c4CN(C4CCC(=O)NC4=O)C5=O)cc3)cc2[nH]1` (stereo partly drawn) [Example 51, 4-((3-(2-(2,6-dioxopiperidin-3-yl)-1-oxoisoindolin-4-yl)prop-2-yn-1-yl)oxy)-N-(2-((R)-1-methylpyrrolidin-2-yl)-1H-pyrrolo[3,2-c]pyridin-6-yl)benzamide] the “MLLT1% Degradation @ 0.01 μM” value (MLLT1) was “A (Category A: A ≥ 75% degradation)”, the “MLLT1% Degradation @ 0.1 μM” value (MLLT1) was “A (Category A: A ≥ 75% degradation)” and the “MLLT1% Degradation @ 1 μM” value (MLLT1) was “A (Category A: A ≥ 75% degradation)”. For the same compound, the pIC50 (MV4-11 cells) was ≥ 7.00.
